Reference: paper PMC12735773, “Toward Brain NaV1.8 Imaging with [^11C]Suzetrigine” (Pharmaceuticals, 2025)

Legend:
NaV1.8 [1] = target: T1, NaV1.8 (Rattus norvegicus, UniProt Q62968); test: radioligand saturation binding autoradiography on rat brain sections, with homologous block
T1 construct: gene Scn10a; native protein in rat brain sections

NaV1.8 [2] = target: T1, NaV1.8; test: competition autoradiography, displacement of [^11C]suzetrigine on rat brain sections; settings: read-out: % reduction of binding at 2 μM

T1 sequence (Q62968 whole entry): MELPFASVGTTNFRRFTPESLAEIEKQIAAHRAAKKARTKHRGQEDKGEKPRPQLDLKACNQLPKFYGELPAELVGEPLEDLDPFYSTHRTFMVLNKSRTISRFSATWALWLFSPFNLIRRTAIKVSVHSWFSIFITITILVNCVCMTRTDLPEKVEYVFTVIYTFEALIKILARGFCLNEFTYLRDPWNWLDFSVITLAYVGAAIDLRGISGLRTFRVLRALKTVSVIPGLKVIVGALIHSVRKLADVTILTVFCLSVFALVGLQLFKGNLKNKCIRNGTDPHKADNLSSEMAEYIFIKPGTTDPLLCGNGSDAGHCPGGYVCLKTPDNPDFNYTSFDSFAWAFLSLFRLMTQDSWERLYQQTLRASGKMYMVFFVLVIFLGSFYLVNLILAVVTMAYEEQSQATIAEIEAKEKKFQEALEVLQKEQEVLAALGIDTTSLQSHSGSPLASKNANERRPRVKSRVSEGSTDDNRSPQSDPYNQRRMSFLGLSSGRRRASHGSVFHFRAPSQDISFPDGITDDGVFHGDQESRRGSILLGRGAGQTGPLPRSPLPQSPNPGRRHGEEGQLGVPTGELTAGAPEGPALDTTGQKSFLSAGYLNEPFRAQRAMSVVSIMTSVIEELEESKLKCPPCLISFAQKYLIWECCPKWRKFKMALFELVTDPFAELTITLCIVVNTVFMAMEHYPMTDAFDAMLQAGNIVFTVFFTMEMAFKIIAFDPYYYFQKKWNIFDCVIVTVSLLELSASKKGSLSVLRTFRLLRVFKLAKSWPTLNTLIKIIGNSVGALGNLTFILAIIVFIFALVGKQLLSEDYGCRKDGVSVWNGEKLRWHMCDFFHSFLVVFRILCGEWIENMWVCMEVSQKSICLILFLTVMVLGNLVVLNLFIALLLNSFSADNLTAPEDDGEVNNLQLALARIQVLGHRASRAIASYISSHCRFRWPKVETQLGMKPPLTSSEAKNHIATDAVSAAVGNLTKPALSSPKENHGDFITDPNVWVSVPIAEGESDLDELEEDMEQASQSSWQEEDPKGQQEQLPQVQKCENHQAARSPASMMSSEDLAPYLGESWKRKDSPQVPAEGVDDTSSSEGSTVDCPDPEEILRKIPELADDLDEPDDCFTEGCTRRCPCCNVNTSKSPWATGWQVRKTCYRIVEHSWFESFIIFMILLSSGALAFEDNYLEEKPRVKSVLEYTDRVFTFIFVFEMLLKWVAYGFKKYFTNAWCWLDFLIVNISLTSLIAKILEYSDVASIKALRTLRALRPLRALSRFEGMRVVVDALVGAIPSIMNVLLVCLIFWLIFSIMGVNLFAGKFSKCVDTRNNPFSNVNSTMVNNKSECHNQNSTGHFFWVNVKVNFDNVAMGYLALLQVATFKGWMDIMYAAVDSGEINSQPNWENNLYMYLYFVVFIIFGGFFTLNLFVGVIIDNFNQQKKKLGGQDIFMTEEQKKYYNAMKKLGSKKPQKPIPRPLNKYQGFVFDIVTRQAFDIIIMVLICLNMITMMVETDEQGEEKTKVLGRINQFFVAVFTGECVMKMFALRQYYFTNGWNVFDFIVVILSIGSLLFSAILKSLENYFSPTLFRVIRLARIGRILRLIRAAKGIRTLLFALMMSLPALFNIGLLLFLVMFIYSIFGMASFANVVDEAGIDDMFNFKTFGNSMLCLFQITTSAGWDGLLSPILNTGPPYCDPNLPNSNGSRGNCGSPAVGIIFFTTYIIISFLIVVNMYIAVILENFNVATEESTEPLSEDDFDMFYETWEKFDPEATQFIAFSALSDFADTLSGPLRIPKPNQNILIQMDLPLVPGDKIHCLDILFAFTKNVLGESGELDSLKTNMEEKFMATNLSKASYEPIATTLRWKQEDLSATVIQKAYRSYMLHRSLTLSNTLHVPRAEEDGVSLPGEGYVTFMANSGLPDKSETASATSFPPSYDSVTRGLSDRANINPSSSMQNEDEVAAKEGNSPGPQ

inhibition at 2 µM (NaV1.8 [2])	SMILES	Kd (NaV1.8 [1])
	COc1c([C@H]2[C@H](C(=O)Nc3ccnc(C(N)=O)c3)O[C@@](C)(C(F)(F)F)[C@H]2C)ccc(F)c1F [compound 2, suzetrigine]	0.1 nM
~50%	COc1cc(NC(=O)c2ccc(-c3ccc(Cl)cc3)o2)cc(OC)c1 [A-803467]	
